From patent US6693125B2 (CombinatoRx Incorporated, priority 2001, dated 2004)

What was measured:
[1] = mice, single intraperitoneal injection 10 mg/kg; cited from earlier work
[2] = system: A549 lung adenocarcinoma cells; assay: A549 bromodeoxyuridine (BrdU) cytoblot antiproliferative assay of compound dilution matrix; format: cell-based
Procedure: An 8× stock solution (128 μM) of each individual compound was made in Dulbecco's Modified Eagle Medium (DMEM) (Gibco 11995-040) containing 10% fetal bovine serum (FBS), […] L-glutamine, and 1% antibiotic/antimycotic solution. From this a 2-fold dilution series was made in DMEM. […] This compound mixture plate provided 4× concentrations of each compound that are transferred to assay plates.
The compound dilution matrix was assayed using the A549 bromodeoxyuri dine (BrdU) cytoblot method. […] Fifteen microliters of the 4× compound mixture matrix was added to each well of the plate containing the cells. The compound mixture matrix was transferred using a 16-channel pipettor (Finnpipette). In addition, control wells with paclitaxel (final concentration 4.6 μM), podophyllotoxin (9.6 μM), and quinacrine (8.5 μM) were added to each plate. Each experiment was conducted in triplicate plates.
After incubation for 48 hours at 37° C., BrdU was added to each well at a concentration of 10 μM. After 16 hours, the media was aspirated and the cells were fixed by the addition of 70% ethanol and phosphate-buffered saline (PBS) at room temperature for 1 hour. The fixative was aspirated and 2N HCl with Tween 20 (polyoxyethylene sorbitan monolaurate) was added to each well and the plates were incubated for 20 minutes at room temperature. The HCl was neutralized with a solution of 2N NaOH and the cells were washed twice with Hank's Balanced Salt Solution (HBSS) and once with PBS containing 0.5% bovine serum albumin (BSA) and 0.1% Tween 20. The wash solution was removed and mouse anti-BrdU primary antibody (PharMingen #555627) was diluted 1:1000 in PBS containing BSA, Tween 20, and secondary antibody at a dilution of 1:2000 (Amersham #NA931). The secondary antibody recognizes the mouse antibody and is conjugated to the enzyme horseradish peroxidase (HRP). After one hour of incubation, the antibody solution was removed and the cells washed once with PBS. After the PBS wash, the HRP substrate (which contains luminol, hydrogen peroxide, and an enhancer such as para-iodophenol) was added to each well. The plates were read using an LJL Analyst. All aspirations as well as the washes with PBS and HBSS were performed using a TECAN™ Power Washer 384. The amount of light output from each well indicates the amount of DNA synthesis that occurred in that well. Decreased light indicates antiproliferative action of the compounds.
Antiproliferative ratios were also calculated for paclitaxel, podophyllotoxin, and quinacrine and used for comparison.
The assays were performed as described in Example 2, above.

[3] = cited from earlier work
[4] = system: nocodozole-resistant NocR and Podrii6 cell lines; conditions: Gupta, Mol. Pharmacol. 30:142-148, 1986; cited from earlier work
[5] = Homo sapiens, A549, read-out: inhibition of growth

Compound: N=C(N)c1ccc(OCCCCCOc2ccc(C(=N)N)cc2)cc1 [pentamidine]
- tissue distribution (concentration ranking) [1]: The concentration in the kidneys was the highest, followed by that in the liver

Compound: CCCSc1ccc2[nH]c(NC(=O)OC)nc2c1 [Albendazole, albendazole]
- antiproliferative ratio ([2]; albendazole 0.03 μM + pentamidine isethionate 0 μM): 1.3
- antiproliferative ratio ([2]; albendazole 0.06 μM + pentamidine isethionate 0 μM): 0.9
- antiproliferative ratio ([2]; albendazole 0.13 μM + pentamidine isethionate 0 μM): 1.2
- antiproliferative ratio ([2]; albendazole 0.25 μM + pentamidine isethionate 0 μM): 1.3
- antiproliferative ratio ([2]; albendazole 0.5 μM + pentamidine isethionate 0 μM): 1.2
- antiproliferative ratio ([2]; albendazole 1 μM + pentamidine isethionate 0 μM): 1.4
- antiproliferative ratio ([2]; albendazole 2 μM + pentamidine isethionate 0 μM): 2.5
- antiproliferative ratio ([2]; albendazole 4 μM + pentamidine isethionate 0 μM): 2.4
- antiproliferative ratio ([2]; albendazole 4 μM + pentamidine isethionate 0 μM, listed as albendazole): increased no further
- antiproliferative ratio ([2]; albendazole 8 μM + pentamidine isethionate 0 μM): 3.1
- inhibition of growth ([2]; albendazole alone, two micromolar): 60%

Compound: COC(=O)Nc1nc2ccc(C(=O)c3ccccc3)cc2[nH]1 [Mebendazole, mebendazole]
- antiproliferative ratio ([2]; mebendazole 0.015 μM + pentamidine isethionate 0 μM): 1.0
- antiproliferative ratio ([2]; mebendazole 0.03 μM + pentamidine isethionate 0 μM): 1.4
- antiproliferative ratio ([2]; mebendazole 0.06 μM + pentamidine isethionate 0 μM): 1.0
- antiproliferative ratio ([2]; mebendazole 0.13 μM + pentamidine isethionate 0 μM): 1.5
- antiproliferative ratio ([2]; mebendazole 0.25 μM + pentamidine isethionate 0 μM): 1.5
- antiproliferative ratio ([2]; mebendazole 0.5 μM + pentamidine isethionate 0 μM): 2.8
- antiproliferative ratio ([2]; mebendazole 1 μM + pentamidine isethionate 0 μM): 3.4
- antiproliferative ratio ([2]; mebendazole 2 μM + pentamidine isethionate 0 μM): 5.0
- antiproliferative ratio ([2]; mebendazole 4 μM + pentamidine isethionate 0 μM): 4.4

Compound: CCCOc1ccc2nc(NC(=O)OC)[nH]c2c1 [Oxibendazole, oxibendazole]
- antiproliferative ratio ([2]; oxibendazole 0.015 μM + pentamidine isethionate 0 μM): 1.0
- antiproliferative ratio ([2]; oxibendazole 0.03 μM + pentamidine isethionate 0 μM): 1.1
- antiproliferative ratio ([2]; oxibendazole 0.06 μM + pentamidine isethionate 0 μM): 1.0
- antiproliferative ratio ([2]; oxibendazole 0.13 μM + pentamidine isethionate 0 μM): 1.1
- antiproliferative ratio ([2]; oxibendazole 0.25 μM + pentamidine isethionate 0 μM): 1.0
- antiproliferative ratio ([2]; oxibendazole 0.5 μM + pentamidine isethionate 0 μM): 1.6
- antiproliferative ratio ([2]; oxibendazole 1 μM + pentamidine isethionate 0 μM): 2.9
- antiproliferative ratio ([2]; oxibendazole 2 μM + pentamidine isethionate 0 μM): 3.2
- antiproliferative ratio ([2]; oxibendazole 4 μM + pentamidine isethionate 0 μM): 3.6

Compound: N=C(N)c1ccc(OCCCCCOc2ccc(C(=N)N)cc2)cc1 [Pentamidine Isethionate, 4,4′-diamidino-diphenoxypentane di(β-hydroxyethanesulfonate)]
- solubility in ether, acetone, and chloroform [3]: insoluble
- solubility in water and glycerin [3]: soluble
- inhibition at 2 µM [2, 5]: 47%
- inhibition at 4 µM [2, 5]: 55%

Compound: CC(=O)O[C@H]1C(=O)[C@@]2(C)[C@H]([C@H](OC(=O)c3ccccc3)[C@]3(O)C[C@H](OC(=O)[C@H](O)[C@@H](NC(=O)c4ccccc4)c4ccccc4)C(C)=C1C3(C)C)[C@]1(OC(C)=O)CO[C@@H]1C[C@@H]2O [paclitaxel]
- antiproliferative ratio ([2]; control wells, paclitaxel final concentration 4.6 μM): 4.0

Compound: CCC[S+]([O-])c1ccc2[nH]c(NC(=O)OC)nc2c1 (stereo not shown) [Albendazole Sulfoxide, albendazole sulfoxide]
- antiproliferative ratio ([2]; albendazole sulfoxide 0.5 μM + pentamidine isethionate 0 μM): 1.2
- antiproliferative ratio ([2]; albendazole sulfoxide 1 μM + pentamidine isethionate 0 μM): 1.1
- antiproliferative ratio ([2]; albendazole sulfoxide 2 μM + pentamidine isethionate 0 μM): 1.2
- antiproliferative ratio ([2]; albendazole sulfoxide 4 μM + pentamidine isethionate 0 μM): 1.4
- antiproliferative ratio ([2]; albendazole sulfoxide 8 μM + pentamidine isethionate 0 μM): 1.4

Compound: c1ccc2[nH]c(-c3cscn3)nc2c1 [Thiabendazole, thiabendazole]
- cross-resistance of nocodozole-resistant cell lines [4]: lack of cross-resistance
- antiproliferative ratio ([2]; thiabendazole 0.25 μM + pentamidine isethionate 0 μM): 1.2
- antiproliferative ratio ([2]; thiabendazole 0.5 μM + pentamidine isethionate 0 μM): 1.2
- antiproliferative ratio ([2]; thiabendazole 1 μM + pentamidine isethionate 0 μM): 1.2
- antiproliferative ratio ([2]; thiabendazole 2 μM + pentamidine isethionate 0 μM): 1.2
- antiproliferative ratio ([2]; thiabendazole 4 μM + pentamidine isethionate 0 μM): 1.2
